This is an account of results in PMC6572996, “Silver(I) Complexes of the Pharmaceutical Agents Metronidazole and 4-Hydroxymethylpyridine: Comparison of Cytotoxic Profile for Potential Clinical Application” (Molecules, 2019).

Series [1] deals with Balb/c 3T3 cells. The series can be described thus: MTT assay (mitochondrial activity), Balb/c 3T3. The format is cell-based, mouse. Conditions: for Lowest concentration with significant (p ≤ 0.05) inhibition of mitochondrial activity (MTT): Balb/c 3T3, 72 h, vs negative control 0.1% DMSO; for IC50: Balb/c 3T3, 72 h exposure, mean (n = 3) ± SEM, read-out: Inhibitory concentration IC50, MTT. The protocol: (§1) Data obtained from the measurement of the optical density in these assays were transformed to percentages in relation to the control group, considered to be 100% for the MTT, NRU, and TPC assays and 0% for the LDH assay (Figure 1).
(§2) The human hepatoma cell line (HepG2) was purchased from the American Type Culture Collection (ATCC HB-8065). These cells were cultured in Minimum Essential Medium Eagle (MEME) (ATCC). The murine fibroblast cell line (Balb/c 3T3 clone A31) (gift from Department of Swine Diseases of the National Veterinary Research Institute in Pulawy) was cultured in Dulbecco’s Modified Eagle’s Medium (DMEM) (ATCC). The media were supplemented with 10% BCS (Balb/c 3T3), 10% FBS (HepG2), 1% L-glutamine, and 1% antibiotic solution. The cells were maintained in 75 cm^2 cell culture flasks (Nunc, Roskilde, Denmark) in a humidified incubator, NuAire (Plymouth, MN, USA) at 37 °C, in an atmosphere of 5% CO2. The medium was refreshed every two or three days and the cells were trypsinized by 0.25% trypsin–0.02% EDTA after reaching 70–80% confluence. Single cell suspensions were prepared and adjusted to a density of 2 × 10^5 cells/mL (HepG2) and 5 × 10^4 cells/mL (Balb/c 3T3). The cell suspension was transferred to 96-well plates (100 µL/well) and incubated for 24 h before the exposure to the study compounds.
(§3) The concentration ranges of compounds were chosen according to their solubility and their plasma level. Each compound was dissolved in DMSO. The final concentration of DMSO was 0.1% in the medium. The same final concentrations of the solvent and the 1% Trition-X 100 solution were used as the negative and positive controls, respectively. […] All compound solutions in the medium were freshly prepared and protected from light. […] The concentration range was selected on the basis of results from previous studies. Each concentration was tested in six replicates with three independent experiments. Cytotoxicity was assessed after 72 h of exposure of the cells to the compounds. The medium was not changed during the incubation time.
(§4) The metabolic activity of living cells was assessed by measuring the activity of dehydrogenases. After incubation of the cells with the compounds, a 10 μL portion of the MTT solution (5 mg/ml in PBS) was added to each well of the 96-well plates and incubated. After 3 h, the MTT solution was removed and the intracellular formazan crystals were dissolved in 100 µl DMSO. The plate was shaken for 15 min at room temperature and transferred to a microplate reader (LabSystems Multiskan RC, Thermo Fisher Scientific, Waltham, MA, USA) to measure the absorbance at 570 nm, using blanks as a reference. Cytotoxicity was expressed as a percentage of the negative control (0.1% DMSO).
(§5) The results of the tests were expressed as a mean ± SD. The experiments were performed in three independent repetitions. Statistical analysis was performed using GraphPad Prism 5 (San Diego, CA, USA). One-way analysis of variance (ANOVA) followed by Dunnett’s post-hoc test was applied. The 50% inhibition (cytotoxicity) concentrations (IC50) were derived from the dose–response curve plotted with the concentration of the compound (X-axis) vs. cell viability percent (Y-axis). The IC50 values were calculated by GraphPad Prism 5 software (San Diego, CA, USA). Statistical comparisons among IC50 values were performed by the analysis of variance (ANOVA) followed by the Tukey test. Values of p ≤ 0.05 were considered statistically significant.

In series [2] the test system is Balb/c 3T3 cells. The series can be described thus: NRU assay (lysosomal activity), Balb/c 3T3. Conditions: for IC50: Balb/c 3T3, 72 h exposure, mean (n = 3) ± SEM, read-out: Inhibitory concentration IC50, NRU. Format: cell-based, mouse. On the procedure: as §1, §2, §3
(§6) The assay, based on the staining of living cells by neutral red, was performed according to the protocol described by Borenfreund and Puerner. After incubation, the medium containing the compound was removed and the cells were washed with PBS. Then, a 100 µL/well of NR solution (50 µg/mL) was added for 3 h. After that time, the cells were washed with PBS. The dye from viable cells was released by extraction with a mixture of acetic acid, ethanol, and water. After 10 min of shaking, the absorbance of the dissolved NR was measured at 540 nm in a microplate reader (LabSystems Multiskan RC, Thermo Fisher Scientific, Waltham, MA, USA) using a blank as a reference. Cytotoxicity was expressed as a percentage of the negative control (0.1% DMSO).
as §5

Series [3] has as its system Balb/c 3T3 cells. The series can be described thus: TPC assay (total protein content), Balb/c 3T3. The format is cell-based, mouse. Conditions: for IC50: Balb/c 3T3, 72 h exposure, mean (n = 3) ± SEM, read-out: Inhibitory concentration IC50, TPC. The protocol: as §1, §2, §3
(§7) The assay was based upon staining total cellular protein (proliferation). After incubation, the medium containing the compound was removed and 100 µL of Coomassie Brilliant Blue R-250 dye were added to each well. The plate was shaken for 10 min. Then, the stain was removed and the cells were rinsed twice with 100 µL of washing solution (glacial acetic acid/ethanol/water). After that, a 100 µL portion of the desorbing solution (1 M potassium acetate) was added and plates were shaken again for 10 min. The absorbance was measured at 595 nm in a microplate reader (LabSystems Multiskan RC, Thermo Fisher Scientific, Waltham, MA, USA) using a blank as a reference. Cytotoxicity was expressed as a percentage of the negative control (0.1% DMSO).
as §5

Series [4] has as its system Balb/c 3T3 cells. In words: Leakage LDH assay (cellular membrane integrity), Balb/c 3T3. The format is cell-based, mouse. The following applies: for IC50: Balb/c 3T3, 72 h exposure, mean (n = 3) ± SEM, read-out: Inhibitory concentration IC50, LDH. On the procedure: as §1, §2, §3
(§8) The integrity of the plasma membrane was assessed using the test of lactate dehydrogenase (LDH) release, which was monitored using the commercially available Cytotoxicity Detection Kit (LDH) (Roche Diagnostics, Warsaw, Poland). The medium (100 µL/well) without cells was transferred into the corresponding wells of an optically clear 96-well flat bottom microplate and a 100 µl reaction mixture was added to each well. Then, the plates were incubated for 30 min at room temperature in darkness. After that time, a 50 µL/well 1 M HCl was added to stop the reaction. The absorbance was measured at 492 nm in a microplate reader (LabSystems Multiskan RC, Thermo Fisher Scientific, Waltham, MA, USA) using a blank as a reference.
as §5

The subject of series [5] is HepG2 cells. In words: MTT assay (mitochondrial activity), HepG2. Format: cell-based, human. Conditions: for IC50: HepG2, 72 h exposure, mean (n = 3) ± SEM, read-out: Inhibitory concentration IC50, MTT. The protocol: as §1, §2, §3, §4, §5
For orientation: Tetrazolium assays rely on reduction of a dye to a coloured formazan, in cell work by metabolically active cells.

In series [6] the test system is HepG2 cells. The series can be described thus: NRU assay (lysosomal activity), HepG2. The format is cell-based, human. Conditions: for Lowest concentration with significant (p ≤ 0.05) inhibition of lysosomal activity (NRU): HepG2, 72 h, vs negative control 0.1% DMSO; for IC50: HepG2, 72 h exposure, mean (n = 3) ± SEM, read-out: Inhibitory concentration IC50, NRU. The protocol: as §1, §2, §3, §6, §5

The test system of series [7] is HepG2 cells. The series can be described thus: TPC assay (total protein content), HepG2. The following applies: for Lowest concentration with significant (p ≤ 0.05) decrease of total protein content (TPC): HepG2, 72 h, vs negative control 0.1% DMSO; for IC50: HepG2, 72 h exposure, mean (n = 3) ± SEM, read-out: Inhibitory concentration IC50, TPC. The format is cell-based, human. On the procedure: as §1, §2, §3, §7, §5

Series [8] has as its system HepG2 cells. The series can be described thus: Leakage LDH assay (cellular membrane integrity), HepG2. Format: cell-based, human. Conditions: for IC50: HepG2, 72 h exposure, mean (n = 3) ± SEM, read-out: Inhibitory concentration IC50, LDH. On the procedure:
as §1, §2, §3, §8, §5

The test system of series [9] is murine melanoma (B16) cell line. Set-up: method as in PMID 26828469. The following applies: cited from earlier work.
For series [10], the system named is murine fibroblasts (L929). Details: method as in PMID 18364400. Conditions: 24 h exposure; read-out: IC50, L929, NRU assay; cited from earlier work.
[11] abbreviates: Balb/c 3T3, 72 h, vs negative control 0.1% DMSO.
The mark [12] stands for this setting: HepG2, 72 h, vs negative control 0.1% DMSO.

A value given as a limit tells only on which side of the number the result lay.

In the case of `Cc1ncc([N+](=O)[O-])n1CCO` [Metronidazole], the “Lowest concentration with significant (p ≤ 0.05) inhibition of mitochondrial activity (MTT)” value with Balb/c 3T3 cells [1] was 36 µM. For the same molecule, the IC50 in the series with Balb/c 3T3 cells [1] (Mus musculus, BALB/c3T3) is more than 146000 nM; in the series with Balb/c 3T3 cells [2] (Mus musculus, BALB/c3T3), more than 146000 nM; in the series with Balb/c 3T3 cells [3] (Mus musculus, BALB/c3T3), more than 146000 nM; in the series on Balb/c 3T3 cells [4] (Mus musculus, BALB/c3T3) it was more than 146 µM; in the series on HepG2 cells [5] (Homo sapiens), more than 146 µM; in the series on HepG2 cells [6] (Homo sapiens) it was more than 146 µM. Besides, the IC50 in the series with HepG2 cells [7] (Homo sapiens) and in the series with HepG2 cells [8] (Homo sapiens) was more than 146 µM throughout. Moreover, in the series on HepG2 cells [6], the “Lowest concentration with significant (p ≤ 0.05) inhibition of lysosomal activity (NRU)” value came out at 146 µM. Also, the “Lowest concentration with significant (p ≤ 0.05) decrease of total protein content (TPC)” value with HepG2 cells [7] is given as 8.8 µM. In addition, in [9] (same observation as in this study), the “Cytotoxicity in B16 cell line” value is “poorly cytotoxic”.

As for `O=[N+]([O-])[O-].[Ag+]` [Silver nitrate], the “Lowest concentration with significant (p ≤ 0.05) inhibition of mitochondrial activity (MTT)” value is given as 2.2 µM in the series on Balb/c 3T3 cells [1] and 4.4 µM in the series on HepG2 cells [5] (setting [12]). Further, the IC50 was determined as 2130 ± 880 nM in the series on Balb/c 3T3 cells [1]; 2940 ± 1060 nM in the series with Balb/c 3T3 cells [2]; 2590 ± 1300 nM in the series on Balb/c 3T3 cells [3]; 3.12 ± 0.06 µM with Balb/c 3T3 cells [4]; 6.48 ± 1.6 µM in the series with HepG2 cells [5]; 6.18 ± 1.41 µM in the series with HepG2 cells [6]. Moreover, the IC50 is 60.3 ± 8.1 µM with HepG2 cells [7], 3.47 ± 0.24 µM with HepG2 cells [8], 9.74 µM in [9] (72 h incubation) and 2550 nM in series [10]. Besides, the “Lowest concentration with significant (p ≤ 0.05) inhibition of lysosomal activity (NRU)” value in the series on Balb/c 3T3 cells [2] (setting [11]) was found to be 2.2 µM; in the series with HepG2 cells [6], 4.4 µM. For the same molecule, the “Lowest concentration with significant (p ≤ 0.05) decrease of total protein content (TPC)” value in the series on Balb/c 3T3 cells [3] (setting [11]) stood at 2.2 µM; in the series with HepG2 cells [7], 8.8 µM. Further, the results for the “Lowest concentration with significant (p ≤ 0.05) disintegration of the cellular membrane (LDH)” value in the series on Balb/c 3T3 cells [4] (setting [11]) and in the series with HepG2 cells [8] (setting [12]) were 2.2 µM and 4.4 µM, respectively.
